This is an account of results in patent US11311560B2, “Cyclic plasmenylethanolamines” (MED-LIFE DISCOVERIES LP, priority 2017, dated 2022).

In one series the test system is Pex7 hypomorph/null mice. As to the kind of experiment: Open field test after 4 weeks oral treatment. It is filed as in vivo, mouse. From the text: The Pex7 hypomorph/null model is a hypomorphic (B6;129S6-Pex7^tm2.3Brav/s9) mouse model on a mixed background (C57BL/6NCrl and 129S6/SvEvTac). The hypomorphic allele in Pex7 hypomorph/null was generated by inserting an inverse neo cassette into intron 2 and lox P sites surrounding exon 3. The Pex7 null allele was generated using (B6.C-Tg(cmv-cre)1Cgn/J) mouse. The Pex7 hypomorph/null mouse model has 90% survival, 0.016-0.257% of wild type Pex7 mRNA levels and 20-30% plasmalogen levels Pex7 hypomoprh/null mice (3-4 months); and wild-type animals, males and females included in treatments and behavioral tests. Pex7 hypomorph/null mice were randomly assigned, after a baseline open field test, into 3 treatment groups: PPI-1040, PPI-1011, and vehicle controls, n=6 mice per group). PPI-1011 or PPI-1040 at 50 mg/kg was given by oral gavage 5 days per week (Monday-Friday) for 4 weeks. During the treatment period, animals were weighed weekly and observed for signs of distress. The open field test was performed at the end of treatment. To avoid selection bias, data analysis was performed only at the study end. Animals were sacrificed after a 24-hour post the last dose.
The open field test is a behavioral test used to evaluate the general locomotor activity, exploratory and anxiety-like behaviour of mice in response to a novel environment. The animal is placed inside a custom made square, gray acrylic box measuring 40×40×40 cm and allowed to move freely for 5 minutes while being recorded by an overhead camera (camera model). The footage was analyzed by an automated tracking system (Any-maze Video Tracking Software, Stoelting Co, Wood Dale, Ill., USA), for total distance traveled (meters) & activity (mobility in seconds) time. The total distance traveled is the total distance that animal traveled during the test and the activity measures the amount of time the animal was active during the test.

Series [1] can be described thus: In vitro acid stability (pH 1-5, one hour, FI-MS/MS). It is filed as physicochemical. The protocol: To test the ability of the vinyl ether in PPI-1040 to withstand the acidic nature of the stomach the compound was exposed to a range of acid strengths (pH 1-5). The stability of the vinyl bond was tested by exposing PPI-1040 (formulated as indicated above) to a pH range from 1-5. The pH solutions were made by serial 10-fold dilutions of 1M HCL in HPLC grade water until pH 4 is reached. Pure HPLC grade water was used as the control solution. The final dilution was completed by added a 20 μl aliquot to 200 μl of the PPI-1040 formulation resulting in a pH range from 1-5 (each condition was tested in triplicate). The mixture was vortexed at room temperature for one hour. Following the one hour incubation each solution was re-suspended in ethyl acetate to obtain 10 μl/ml solution which was analyzed using flow injection tandem mass spectrometry (FI-MS/MS) on a API4000™ mass spectrometer (Applied Biosystems) coupled with Agilent 1100 HPLC pump and auto sampler.

Series [2] has as its system Pex7 homozygous hypomorphic animals (Pex7^neo/neo). Put plainly: Sub-chronic (9 weeks) dosing with PPI-1040: plasmalogen levels in plasma, liver, lung. It counts as in vivo, mouse. The note with it: 89.7 mg/Kg intraperitoneal, 3 doses per week. As for the experimental part: Pex7 homozygous hypomorphic animals)(Pex7^neo/neo) were used as a model of rhizomelic chondrodysplasia punctata to further test the ability of PPI-1040 to augment plasmalogen levels in a deficient system, following 9 weeks of sub-chronic dosing. PPI-1040 was stored in a sealed ampoule in solution with dichloromethane under argon gas until immediately before use. At time of treatment the ampoule was opened and dichloromethane was evaporated off under nitrogen gas for 10 minutes. Neobee M-5 was then added and the solution vortexed to generate a 22.4 mg/mL formulation. Animals were dosed via intraperitoneal injections with doses adjusted by weight to ensure an 89.7 mg/Kg dose to each animal. Animals were sacrificed following 9 weeks of treatment with 3 doses administered per week (Monday, Wednesday and Friday). Blood samples were collected in EDTA tubes and then spun down in a clinical centrifuge. Plasma samples were stored at −80° C. until thawed for analysis. Tissue samples were harvested and flash frozen in liquid nitrogen and then stored at −80° C. All tissue samples were homogenized using liquid nitrogen, generating a fine powder. Extraction and plasmalogen analysis by LC-MS/MS was carried out as described above.

Series [3] is described as follows: Oral bioavailability study with 13C-labeled PPI-1050: labeled glycerolipids in serum. It counts as in vivo, mouse. As to conditions: wild-type C57Bl/6 mice. The protocol:
A ^13C-labeled version of PPI-1040, called PPI-1050, was generated to evaluate the ability of the intact compound to cross the gut boundary and enter the bloodstream intact. PPI-1050 contains carbon-13 labels on the three glycerol carbons and 3 carbons of the sn-1 palmitic acid. Wild-type C57/Bl6 mice were treated with a single oral dose of 100 mg/kg PPI-1050 (formulated in Neobee-M5 with 0.1% thioglycerol) or vehicle. Animals were then sacrificed and blood harvested by cardiac puncture at 1, 3 and 6 hours post-treatment (n=3). Serum was then analyzed for presence of incorporation of the label into glycerolipids. Serum extraction was performed on 20 μL aliquots in 1.4 ml Thermo matrix tubes. […] A 100 μL aliquot of the ethyl acetate layer was analyzed using FI-MS/MS on a API4000™ mass spectrometer (Applied Biosystems) coupled with Agilent 1100 HPLC pump and auto sampler. […] The parent PlsEtn mass was determined by incorporating the intact number of 13C labels in the predicted parent together with the corresponding daughter ion (sn2 fatty acid loss) to obtain the quantitative MS/MS transition pair. To confirm the ethanolamine group remained intact upon absorption we also analyzed serum for the presence of labeled alkyl-acyl and vinyl-acyl glycerols using FI-MS/MS analysis in positive mode. All transitions measured can be found in Table 1 below. […]

Where [4] appears, read: 50 mg/kg oral gavage, 5 days per week, 5 minutes test.

Molecules are shown by their SMILES. Entries after “also recorded” stand apart in the source; their conditions may differ.

Consider `CC/C=C\C/C=C\C/C=C\C/C=C\C/C=C\C/C=C\CCC(=O)OC(CO/C=C\CCCCCCCCCCCCCC)COP1(=O)NCCO1` (centres unmarked) [PPI-1040, 1-(((Z)-hexadec-1-en-1-yl)oxy)-3-((2-oxido-1,3,2-oxazaphospholidin-2-yl)oxy)propan-2-yl (4Z,7Z,10Z,13Z,16Z,19Z)-docosa-4,7,10,13,16,19-hexaenoate], for which, in the series with Pex7 hypomorph/null mice (setting [4]), the “open field: time active” value is “significant decrease in activity and normalization of the hyperactive phenotype”; the “open field: total distance traveled” value was “significant decrease in activity and normalization of the hyperactive phenotype”. The hyperactivity phenotype result in the series on Pex7 hypomorph/null mice (50 mg/kg oral, p<0.05) is given as “significant improvement”. In series [1] (aqueous control and pH 1-5, one hour, room temperature), the “level of the cyclized (closed ring) form after incubation” value was “almost undetectable in all samples; also recorded: minimal intact PPI-1040 being observed”. In series [1] (control and pH 3-5, one hour), the “cleavage of the sn-1 vinyl-ether bond (loss of sn-1 group)” value (from here on “cleavage … (loss of sn-1 group)”) was “minimal loss of the sn-1 group”. Besides, in series [1] (pH 1, one hour), the “cleavage … (loss of sn-1 group)” value is “overall degradation of the molecule; also recorded: largely degraded” and the “stability of open ring form (PlsEtn 16:0/22:6)” value is reported as “very little being detected”. Besides, in series [1] (pH 2, one hour), the “cleavage … (loss of sn-1 group)” value is reported as “cleavage of the vinyl group is prevalent; also recorded: observed beginning at pH2” and the “stability of open ring form (PlsEtn 16:0/22:6)” value is reported as “slight reduction”. Also, in series [2], the “16:0 plasmalogen pool in serum (FIG. 5: plasma)” value is given as “elevated to levels significantly above control”, the “liver levels of the target plasmalogen (16:0/22:6)” value is reported as “elevated to above control levels”, the “liver total 16:0 plasmalogen pool” value is “elevated to above control levels” and the “lung levels of the target plasmalogen (16:0/22:6)” value is recorded as “elevated to control levels”. Further, in series [2], the “lung total 16:0 plasmalogen pool” value was “elevated to control levels” and the “target 16:0/22:6 ethanolamine plasmalogen in serum (FIG. 5: plasma)” value was “elevated to levels significantly higher than control”. Also, in series [3] (single oral dose 100 mg/kg PPI-1050), the oral bioavailability entry was “orally bioavailable and crossed the gut lining intact”. Also, the “intact compound with closed phosphoethanolamine ring in serum” value in series [3] (single oral dose 100 mg/kg PPI-1050, 1, 3, 6 hours) is on record as “not detectable in any samples”.
